Test system: RSV Long strain
Assay: Viral cytopathic effect (CPE) assay, anti-RSV activity
Format: cell-based, Respiratory Syncytial Virus
Conditions: human respiratory syncytial virus, 144 h, RSV Long strain (ATCC); cell viability after 6 days, Cell Counting kit-8
Method in brief: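 Cells (6×10^3/well, DMEM with 10% FBS) were infected next day with RSV Long strain, at a dose giving approximately 80–90% CPE, alongside serial half-log compound dilutions. Viability was read after 6 days by CCK-8 absorbance at 450 nm (reference 630 nm), and EC50 was derived from it.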

EC50 [µM] | SMILES
0.264 | CNC(=O)CNc1cc(N2CCS(=O)(=O)c3ccccc3C2)nc2ccc(C)cc12 [Example 36-6, N^˜2^˜-[2-(1,1-Dioxido-2,3-dihydro-1,4-benzothiazepin-4(5H)-yl)-6-methylquinolin-4-yl]-N-methylglycinamide]
0.005 | Cc1ccc2nc(N3CCS(=O)(=O)c4ccccc4C3)cc(NC[C@H](N)CO)c2c1 [Example 37-1, (2S)-2-Amino-3-{[2-(1,1-dioxido-2,3-dihydro-1,4-benzothiazepin-4(5H)-yl)-6-methylquinolin-4-yl]amino}propan-1-ol]
0.043 | Cc1ccc2nc(N3CCS(=O)(=O)c4ccccc4C3)cc(NC[C@@H](N)CO)c2c1 [Example 37-2, (2R)-2-Amino-3-{[2-(1,1-dioxido-2,3-dihydro-1,4-benzothiazepin-4(5H)-yl)-6-methylquinolin-4-yl]amino}propan-1-ol]
0.01 | Cc1ccc2nc(N3CCS(=O)(=O)c4ccccc4C3)cc(NCC3CN=C(N)O3)c2c1 (stereo not shown) [Example 38-1, N-[(2-Amino-4,5-dihydro-1,3-oxazol-5-yl)methyl]-2-(1,1-dioxido-2,3-dihydro-1,4-benzothiazepin-4(5H)-yl)-6-methylquinolin-4-amine]
0.302 | Cc1ccc2nc(N3CCS(=O)(=O)c4ccccc4C3)cc(NCC3(C)CN=C(N)O3)c2c1 (stereo not shown) [Example 38-2, N-[(2-Amino-5-methyl-4,5-dihydro-1,3-oxazol-5-yl)methyl]-2-(1,1-dioxido-2,3-dihydro-1,4-benzothiazepin-4(5H)-yl)-6-methylquinolin-4-amine]
0.074 | Cc1ccc2nc(N3CCS(=O)(=O)c4ccccc4C3)cc(NC[C@@H]3COC(N)=N3)c2c1 [Example 38-3, N-{[(4R)-2-Amino-4,5-dihydro-1,3-oxazol-4-yl]methyl}-2-(1,1-dioxido-2,3-dihydro-1,4-benzothiazepin-4(5H)-yl)-6-methylquinolin-4-amine]
0.064 | Cc1ccc2nc(N3CCS(=O)(=O)c4ccccc4C3)cc(NC[C@H]3COC(N)=N3)c2c1 [Example 38-4, N-{[(4S)-2-Amino-4,5-dihydro-1,3-oxazol-4-yl]methyl}-2-(1,1-dioxido-2,3-dihydro-1,4-benzothiazepin-4(5 H)-yl)-6-methylquinolin-4-amine]
0.092 | Cc1ccc2nc(N3CCS(=O)(=O)c4ccccc4C3)cc(N)c2c1 [Example 39, 2-(1,1-Dioxido-2,3-dihydro-1,4-benzothiazepin-4(5H)-yl)-6-methylquinolin-4-amine]
0.039 | Cc1ccc2nc(N3CCS(=O)(=O)c4ccccc4C3)cc(NC(=O)CN)c2c1 [Example 40-1, N-[2-(1,1-Dioxido-2,3-dihydro-1,4-benzothiazepin-4(5H)-yl)-6-methylquinolin-4-yl]glycinamide]
4.66 | Cc1ccc2nc(N3CCS(=O)(=O)c4ccccc4C3)cc(NC(=O)C(C)(C)N)c2c1 [Example 40-2, N-[2-(1,1-Dioxido-2,3-dihydro-1,4-benzothiazepin-4(5H)-yl)-6-methylquinolin-4-yl]-2-methylalaninamide]
0.917 | Cc1ccc2nc(N3CCS(=O)(=O)c4ccccc4C3)cc(NC(=O)[C@H](C)N)c2c1 [Example 40-3, N-[2-(1,1-Dioxido-2,3-dihydro-1,4-benzothiazepin-4(5H)-yl)-6-methylquinolin-4-yl]alaninamide]

More lines, now with the values behind:

SMILES | EC50 [µM]
Cc1ccc2nc(N3CCS(=O)(=O)c4ccccc4C3)cc(N3CCC(N)C3)c2c1 (stereo not shown) [Example 25, 1-[2-(1,1-Dioxido-2,3-dihydro-1,4-benzothiazepin-4(5H)-yl)-6-methylquinolin-4-yl]pyrrolidin-3-amine] | 0.002
Cc1ccc2nc(N3CCS(=O)(=O)c4ccccc4C3)cc(NC3CNC3)c2c1 [Example 26-1, N-(Azetidin-3-yl)-2-(1,1-dioxido-2,3-dihydro-1,4-benzothiazepin-4(5H)-yl)-6-methylquinolin-4-amine] | 0.005
Cc1ccc2nc(N3CCS(=O)(=O)c4ccccc4C3)cc(N3CC(N)C3)c2c1 [Example 26-2, 1-[2-(1,1-Dioxido-2,3-dihydro-1,4-benzothiazepin-4(5H)-yl)-6-methylquinolin-4-yl]azetidin-3-amine] | 0.179
Cc1ccc2nc(N3CCS(=O)(=O)c4ccccc4C3)cc(NC(=O)[C@@H]3CCCN3)c2c1 [Example 27, N-[2-(1,1-Dioxido-2,3-dihydro-1,4-benzothiazepin-4(5H)-yl)-6-methylquinolin-4-yl]prolinamide] | 2.39
Cc1ccc2nc(N3CCS(=O)(=O)c4ccccc4C3)cc(NC3CNCC3F)c2c1 (stereo not drawn) [Example 28-1, 2-(1,1-Dioxido-2,3-dihydro-1,4-benzothiazepin-4(5H)-yl)-N-trans-(4-fluoropyrrolidin-3-yl)-6-methylquinolin-4-amine] | 0.007
NCCCNc1cc(N2CCS(=O)(=O)c3ccccc3C2)nc2ccc(O)cc12 [Example 29, 4-[(3-Aminopropyl)amino]-2-(1,1-dioxido-2,3-dihydro-1,4-benzothiazepin-4(5H)-yl)quinolin-6-ol] | 0.042
NCCCNc1cc(N2CCS(=O)(=O)c3ccccc3C2)nc2ccc(OCCO)cc12 [Example 30-1, 2-({4-[(3-Aminopropyl)amino]-2-(1,1-dioxido-2,3-dihydro-1,4-benzothiazepin-4(5 H)-yl)quinolin-6-yl}oxy)ethanol] | 0.317
COCCOc1ccc2nc(N3CCS(=O)(=O)c4ccccc4C3)cc(NCCCN)c2c1 [Example 30-2, N-[2-(1,1-Dioxido-2,3-dihydro-1,4-benzothiazepin-4(5H)-yl)-6-(2-methoxyethoxy)quinolin-4-yl]propane-1,3-diamine] | 0.218
NCCCNc1cc(N2CCS(=O)(=O)c3ccccc3C2)nc2ccc(Oc3ccccn3)cc12 [Example 31, N-[2-(1,1-Dioxido-2,3-dihydro-1,4-benzothiazepin-4(5H)-yl)-6-(pyridin-2-yloxy)quinolin-4-yl]propane-1,3-diamine] | 0.702
Cc1ccc2nc(N3CCS(=O)(=O)c4ccccc4C3)cc(NCC(O)CO)c2c1 (stereo not shown) [Example 32-1, 3-{[2-(1,1-Dioxido-2,3-dihydro-1,4-benzothiazepin-4(5H)-yl)-6-methylquinolin-4-yl]amino}propane-1,2-diol] | 0.019
O=S1(=O)CCN(c2cc(NCC(O)CO)c3cc(Cl)ccc3n2)Cc2ccccc21 (stereo not shown) [Example 32-2, 3-{[6-Chloro-2-(1,1-dioxido-2,3-dihydro-1,4-benzothiazepin-4(5H)-yl)quinolin-4-yl]amino}propane-1,2-diol] | 2.45
Cc1ccc2nc(N3CCS(=O)(=O)c4cc(Cl)ccc4C3)cc(NCC(O)CO)c2c1 (stereo not shown) [Example 32-3, 3-{[2-(8-Chloro-1,1-dioxido-2,3-dihydro-1,4-benzothiazepin-4(5H)-yl)-6-methylquinolin-4-yl]amino}propane-1,2-diol] | 1.99
Cc1ccc2nc(N3CC[S+]([O-])c4ccccc4C3)cc(NCC(O)CO)c2c1 (stereo not shown) [Example 32-4, 3-{[6-Methyl-2-(1-oxido-2,3-dihydro-1,4-benzothiazepin-4(5H)-yl)quinolin-4-yl]amino}propane-1,2-diol] | 0.272
Cc1ccc2nc(N3CCS(=O)(=O)c4ccccc4C3C)cc(NCC(O)CO)c2c1 (stereo not shown) [Example 32-5, 3-{[6-Methyl-2-(5-methyl-1,1-dioxido-2,3-dihydro-1,4-benzothiazepin-4(5H)-yl)quinolin-4-yl]amino}propane-1,2-diol] | 2.58
Cc1ccc2nc(N3CCS(=O)(=O)c4ccc(N5CCOCC5)cc4C3)cc(NCC3(N)COC3)c2c1 [Example 33-1, N-[(3-Aminooxetan-3-yl)methyl]-2-(7-morpholin-4-yl-1,1-dioxido-2,3-dihydro-1,4-benzothiazepin-4(5H)-yl)-6-methylquinolin-4-amine] | 0.044
Cc1ccc2nc(N3CCS(=O)(=O)c4ccc(N5CCN(C(C)C)CC5)cc4C3)cc(NCC3(N)COC3)c2c1 [Example 33-2, N-[(3-Aminooxetan-3-yl)methyl]-2-{1,1-dioxido-7-[4-(propan-2-yl)piperazin-1-yl]-2,3-dihydro-1,4-benzothiazepin-4(5H)-yl}-6-methylquinolin-4-amine] | 0.627
Nc1cc(N2CCS(=O)(=O)c3cc(OCCCO)ccc3C2)nc2ccccc12 [Example 34, 3-{[4-(4-Aminoquinolin-2-yl)-1,1-dioxido-2,3,4,5-tetrahydro-1,4-benzothiazepin-8-yl]oxy}propan-1-ol] | 2.09
Cc1ccc2nc(N3CCS(=O)(=O)c4cc(Oc5ccccc5)ccc4C3)cc(NCC3(N)COC3)c2c1 [Example 35, N-[(3-Aminooxetan-3-yl)methyl]-2-(1,1-dioxido-8-phenoxy-2,3-dihydro-1,4-benzothiazepin-4(5H)-yl)-6-methylquinolin-4-amine] | 2.79
Cc1ccc2nc(N3CCS(=O)(=O)c4ccccc4C3)cc(NCCC(N)=O)c2c1 [Example 36-1, N^˜3^˜-[2-(1,1-Dioxido-2,3-dihydro-1,4-benzothiazepin-4(5H)-yl)-6-methylquinolin-4-yl]-beta-alaninamide] | 0.073
Cc1ccc2nc(N3CCS(=O)(=O)c4ccccc4C3)cc(NC(C)CC(N)=O)c2c1 (stereo not shown) [Example 36-2, 3-{[2-(1,1-Dioxido-2,3-dihydro-1,4-benzothiazepin-4(5H)-yl)-6-methylquinolin-4-yl]amino}butanamide] | 1.47
Cc1ccc2nc(N3CCS(=O)(=O)c4ccccc4C3)cc(NCC(C)C(N)=O)c2c1 (stereo not shown) [Example 36-3, 3-{[2-(1,1-Dioxido-2,3-dihydro-1,4-benzothiazepin-4(5H)-yl)-6-methylquinolin-4-yl]amino}-2-methylpropanamide] | 2.15
Cc1ccc2nc(N3CCS(=O)(=O)c4ccccc4C3)cc(N[C@@H](C)C(N)=O)c2c1 [Example 36-4, N^˜2^˜-[2-(1,1-dioxido-2,3-dihydro-1,4-benzothiazepin-4(5H)-yl)-6-methylquinolin-4-yl]-L-alaninamide] | 0.138
Cc1ccc2nc(N3CCS(=O)(=O)c4ccccc4C3)cc(NCC(N)=O)c2c1 [Example 36-5, N^˜2^˜-[2-(1,1-Dioxido-2,3-dihydro-1,4-benzothiazepin-4(5H)-yl)-6-methylquinolin-4-yl]glycinamide] | 0.026
